For 15 compounds, GI50 and TGI results are on record in PubChem BioAssay (NCI).

Among the test systems are SW-620 colon; TK-10 renal; ACHN renal; SK-MEL-2 melanoma; HCC-2998 colon; HOP-92 NSCLC; SNB-75 CNS; UO-31 renal; MOLT-4 leukemia; EKVX NSCLC.
Holding throughout (assay): DTP human tumour cell line panel, 48 h

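Five concentrations, 48 hours, 96-well plates. At the GI50, growth is halved. Definition used: TGI = concentration required for complete inhibition of growth.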

By GI50 is commonly meant the concentration that inhibits growth by half. Broadly, the TGI is the concentration at which net growth stops. Read a low TGI as greater sensitivity of the cells. Take `COc1ccc(CN2CCCC(C(=O)c3ccc(C(F)(F)F)cc3)C2)c(O)c1` (stereo not drawn): the GI50 in the assay on SW-620 colon was 18.6 µM; in the assay with TK-10 renal it was 31.3 µM; with ACHN renal, 33.6 µM; with SK-MEL-2 melanoma it was 27.5 µM; in the assay with HCC-2998 colon, 24 µM; with HOP-92 NSCLC, 11.1 µM. Moreover, the GI50 was 18.4 µM with SNB-75 CNS, 14.4 µM with UO-31 renal and 27.5 µM in the assay with MOLT-4 leukemia. The TGI with SW-620 colon was 41.2 µM; in the assay with TK-10 renal it was 88.7 µM; in the assay on ACHN renal, over 100 µM; with SK-MEL-2 melanoma it was 65.8 µM; with HCC-2998 colon, 56.3 µM; in the assay with HOP-92 NSCLC, 58 µM. Further, the TGI is over 100 µM in the assay with SNB-75 CNS, 59.6 µM in the assay with UO-31 renal and over 100 µM with MOLT-4 leukemia.

`CCOC(=O)c1cnc2[nH]ccn2c1=O`: the TGI with SW-620 colon, with TK-10 renal, in the assay with ACHN renal, with SK-MEL-2 melanoma, in the assay with EKVX NSCLC and with HOP-92 NSCLC was over 10 µM each time. Moreover, the TGI with SNB-75 CNS, with UO-31 renal and in the assay on MOLT-4 leukemia was over 10 µM each time.

`CCn1c(=O)c2c3cc(O)ccc3oc2c2ccc(O)cc21`: the TGI in the assay with SW-620 colon is over 100 µM; in the assay with TK-10 renal, over 100 µM; in the assay with ACHN renal it was 66.1 µM; with HCC-2998 colon it was 50.9 µM; in the assay on EKVX NSCLC it was 62.6 µM; in the assay with HOP-92 NSCLC it was 80.3 µM. In addition, the results for the TGI with SNB-75 CNS, in the assay on UO-31 renal and with MOLT-4 leukemia were over 100 µM, 46.6 µM and over 100 µM, respectively.

In the case of `Cc1c(C(=O)/C=C/c2cccc3ccccc23)[n+](=O)c2ccccc2n1[O-]`, the TGI in the assay with SW-620 colon was found to be 22.7 µM; in the assay with TK-10 renal, 34.6 µM; with ACHN renal, 29.4 µM; in the assay with HCC-2998 colon, 30.8 µM; in the assay on EKVX NSCLC, 27.3 µM; in the assay on HOP-92 NSCLC, 22.5 µM. Besides, the concentration for total growth inhibition (TGI) came to 27.2 µM in the assay on SNB-75 CNS, 31.2 µM in the assay with UO-31 renal and 35.4 µM with MOLT-4 leukemia.

Take `C1CN2N3CCCC23C1` (stereo not drawn): the TGI in the assay on SW-620 colon, in the assay with TK-10 renal, in the assay with ACHN renal, in the assay on SK-MEL-2 melanoma, with HCC-2998 colon and with EKVX NSCLC was over 100 µM throughout. For the same compound, the TGI in the assay on SNB-75 CNS, in the assay on UO-31 renal and with MOLT-4 leukemia was over 100 µM in each case.

Regarding `Cn1cc(C2=C(c3ccc(OC[C@@H](O)CO)cc3)C(=O)NC2=O)c2ccccc21`, the GI50 in the assay with SW-620 colon, in the assay on TK-10 renal, in the assay with ACHN renal, in the assay with SK-MEL-2 melanoma, in the assay with HCC-2998 colon and with HOP-92 NSCLC was over 25 µM throughout. Besides, the GI50 in the assay on SNB-75 CNS was 2.23 µM; with UO-31 renal it was over 25 µM; in the assay on MOLT-4 leukemia it was over 25 µM. Moreover, the TGI with SW-620 colon, with TK-10 renal, in the assay with ACHN renal, in the assay on SK-MEL-2 melanoma, in the assay with HCC-2998 colon and with HOP-92 NSCLC was over 25 µM throughout. Moreover, the TGI in the assay with SNB-75 CNS, with UO-31 renal and with MOLT-4 leukemia was over 25 µM each time.

On to `COc1cc2c(cc1O)[C@H](Cc1ccc(Oc3cc(C[C@H]4c5cc(OC)c(OC)cc5CCN4C)ccc3OC)cc1)NCC2`, for which the TGI with SW-620 colon turned out to be 25.5 µM; in the assay on ACHN renal, 23.6 µM; with SK-MEL-2 melanoma, 32.1 µM; in the assay on HCC-2998 colon it was 18.7 µM; in the assay with HOP-92 NSCLC, 20.1 µM; in the assay on SNB-75 CNS, 21.8 µM. The figures for the TGI in the assay on UO-31 renal and in the assay with MOLT-4 leukemia were 21.2 µM and 25.5 µM, respectively.

As for `CC(=O)CC(=O)c1cc2c(=O)oc(C)cc2oc1=O`, the TGI in the assay on SW-620 colon, in the assay on TK-10 renal, in the assay on ACHN renal, in the assay with SK-MEL-2 melanoma, with HCC-2998 colon and in the assay with EKVX NSCLC was over 37.5 µM throughout. The TGI in the assay on SNB-75 CNS, in the assay with UO-31 renal and in the assay on MOLT-4 leukemia was over 37.5 µM each time.

As for `CCCCCCCCCCCCCCC1OC(=O)c2ccccc21` (stereo not drawn), the TGI in the assay on SW-620 colon, with TK-10 renal, with ACHN renal, with EKVX NSCLC, in the assay with SNB-75 CNS and with UO-31 renal was over 100 µM throughout. The total growth inhibition concentration (TGI) in the assay with MOLT-4 leukemia is over 100 µM.

As for `CCCNC(=O)OCc1c(COC(=O)NCCC)c(-c2ccc(Cl)c(Cl)c2)n2c1CCC2`, the TGI in the assay on SW-620 colon came out at 20.6 µM; with TK-10 renal, 18.9 µM; in the assay on ACHN renal it was 6.28 µM; with EKVX NSCLC, 30.2 µM; with HOP-92 NSCLC, 9.98 µM; with UO-31 renal it was 12.6 µM. The compound further had a TGI in the assay on MOLT-4 leukemia of 87.7 µM.

As to `CCOC(=O)c1c(N)n(-c2ccccc2)c(=S)n(-c2ccccc2)c1=O`, the TGI in the assay on SW-620 colon, with TK-10 renal, with ACHN renal, in the assay on SK-MEL-2 melanoma, in the assay with HCC-2998 colon and in the assay on HOP-92 NSCLC was over 100 µM throughout. For the same compound, the TGI in the assay with SNB-75 CNS, with UO-31 renal and in the assay with MOLT-4 leukemia was over 100 µM each time.

As to `O=S(=O)(O)C(O)/C=C/c1ccccc1` (stereo not drawn), the TGI with SW-620 colon, in the assay on TK-10 renal, with ACHN renal, in the assay on SK-MEL-2 melanoma, with HCC-2998 colon and in the assay with EKVX NSCLC was over 100 µM in each case. The TGI in the assay on SNB-75 CNS, with UO-31 renal and with MOLT-4 leukemia was over 100 µM each time.

In the case of `COc1ccc(NC2Oc3cc4c(cc3C(c3cc(OC)c(OC)c(OC)c3)C2C)OCO4)cc1` (stereo not drawn), the concentration for total growth inhibition (TGI) in the assay with SW-620 colon is over 100 µM; in the assay with TK-10 renal, over 82.8 µM; with ACHN renal it was over 38.5 µM; in the assay on SK-MEL-2 melanoma it was over 100 µM; in the assay on EKVX NSCLC, 34.1 µM; in the assay with HOP-92 NSCLC it was 33.7 µM. Also, the TGI with SNB-75 CNS was over 100 µM; in the assay with UO-31 renal it was 22.1 µM; in the assay with MOLT-4 leukemia, over 100 µM.

In the case of `OCCNCO`, the total growth inhibition concentration (TGI) in the assay with SW-620 colon, in the assay on TK-10 renal, in the assay with ACHN renal, in the assay on SK-MEL-2 melanoma, with EKVX NSCLC and with HOP-92 NSCLC was over 100 µM throughout. Also, the TGI in the assay with SNB-75 CNS, in the assay with UO-31 renal and in the assay on MOLT-4 leukemia was over 100 µM each time.

With `COC(=O)c1c(OC)cccc1C(=O)O`, the TGI with SW-620 colon, in the assay on TK-10 renal, in the assay on ACHN renal, in the assay with SK-MEL-2 melanoma, in the assay on HCC-2998 colon and with EKVX NSCLC was over 100 µM each time. The TGI in the assay on SNB-75 CNS, with UO-31 renal and in the assay on MOLT-4 leukemia was over 100 µM in each case.
